# Data from patent US20220347175A1, “PYRIDAZINONE DERIVATIVE” (Sumitomo Dainippon Pharma Co., Ltd., priority 2018, published 2022).
# What was measured:
# human Nav1.1 = target: T1, human Nav1.1 (Homo sapiens, UniProt P35498); assay: Amplification of Nav1.1-derived voltage-dependent sodium current (Nav1.1 current), cell line stably expressing human Nav1.1, automated patch clamp; type: cell-based
# T1 construct: host or cells: HEK293
# Outline: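 Amplification rate (%) is 100 × post-compound/pre-compound Nav1.1 peak current or AUC, minus 100. Ramp-evoked sodium currents were recorded by automated patch clamp in a human Nav1.1 HEK293 stable line, restricted to cells exceeding 500 pA, with compounds added in extracellular solution containing 1% DMSO.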
# human Nav1.5 = target: T2, human Nav1.5 (Homo sapiens, UniProt Q14524); assay: Amplification of Nav1.5-derived voltage-dependent sodium current (Nav1.5 current), cell line stably expressing human Nav1.5, automated patch clamp; type: cell-based
# T2 construct: expressed in transfected cells; host or cells: CHO-K1 (T-REx System, ThermoFisher Scientific)
# Method: Test 2: Evaluation of the Amplification in Nav1.5-Derived Voltage-Dependent Sodium Current (Nav1.5 Current) by Using a Cell Line Stably Expressing Human Nav1.5
# A CHO-K1 cell line (Chinese hamster ovary) stably expressing human Nav1.5 (Gene Bank Accession No: P000326.2) was obtained by using purchased T-Rex System (ThermoFisher Scientific, USA), and used for the present test. The effect of test compounds on the amplification of Nav1.5 current was evaluated by using a cell line stably expressing human Nav1.5 and HTS automated patch clamp system, similarly in the method using Nav1.1. In other words, test compounds were added in an extracellular fluid which contained 1% DMSO and 500 nmol/L Tetrodotoxin (TTX), and evaluated as a change of the peak value of Nav1.5 current and the area under the curve (AUC). The induction and the measurement of Nav1.5 current, the pharmacologic effect on Nav1.5 current, and a method for pharmacological evaluation were carried out by the same method as in Nav1.1.
# [1] = compound 3 μmol/L, HEK293 stably expressing human Nav1.1
# [2] = compound 3 μmol/L, CHO-K1 stably expressing human Nav1.5
# [3] = compound 1 μmol/L, HEK293 stably expressing human Nav1.1
# [4] = compound 1 μmol/L, CHO-K1 stably expressing human Nav1.5
# [5] = 10 μmol/L compound, change of the area under the curve of Nav1.1 current (Test Result 1)
# [6] = 10 μmol/L compound, change of the area under the curve of Nav1.5 current (Test Result 1)
# T2 sequence (Q14524 1-2015 isoform Q14524-2): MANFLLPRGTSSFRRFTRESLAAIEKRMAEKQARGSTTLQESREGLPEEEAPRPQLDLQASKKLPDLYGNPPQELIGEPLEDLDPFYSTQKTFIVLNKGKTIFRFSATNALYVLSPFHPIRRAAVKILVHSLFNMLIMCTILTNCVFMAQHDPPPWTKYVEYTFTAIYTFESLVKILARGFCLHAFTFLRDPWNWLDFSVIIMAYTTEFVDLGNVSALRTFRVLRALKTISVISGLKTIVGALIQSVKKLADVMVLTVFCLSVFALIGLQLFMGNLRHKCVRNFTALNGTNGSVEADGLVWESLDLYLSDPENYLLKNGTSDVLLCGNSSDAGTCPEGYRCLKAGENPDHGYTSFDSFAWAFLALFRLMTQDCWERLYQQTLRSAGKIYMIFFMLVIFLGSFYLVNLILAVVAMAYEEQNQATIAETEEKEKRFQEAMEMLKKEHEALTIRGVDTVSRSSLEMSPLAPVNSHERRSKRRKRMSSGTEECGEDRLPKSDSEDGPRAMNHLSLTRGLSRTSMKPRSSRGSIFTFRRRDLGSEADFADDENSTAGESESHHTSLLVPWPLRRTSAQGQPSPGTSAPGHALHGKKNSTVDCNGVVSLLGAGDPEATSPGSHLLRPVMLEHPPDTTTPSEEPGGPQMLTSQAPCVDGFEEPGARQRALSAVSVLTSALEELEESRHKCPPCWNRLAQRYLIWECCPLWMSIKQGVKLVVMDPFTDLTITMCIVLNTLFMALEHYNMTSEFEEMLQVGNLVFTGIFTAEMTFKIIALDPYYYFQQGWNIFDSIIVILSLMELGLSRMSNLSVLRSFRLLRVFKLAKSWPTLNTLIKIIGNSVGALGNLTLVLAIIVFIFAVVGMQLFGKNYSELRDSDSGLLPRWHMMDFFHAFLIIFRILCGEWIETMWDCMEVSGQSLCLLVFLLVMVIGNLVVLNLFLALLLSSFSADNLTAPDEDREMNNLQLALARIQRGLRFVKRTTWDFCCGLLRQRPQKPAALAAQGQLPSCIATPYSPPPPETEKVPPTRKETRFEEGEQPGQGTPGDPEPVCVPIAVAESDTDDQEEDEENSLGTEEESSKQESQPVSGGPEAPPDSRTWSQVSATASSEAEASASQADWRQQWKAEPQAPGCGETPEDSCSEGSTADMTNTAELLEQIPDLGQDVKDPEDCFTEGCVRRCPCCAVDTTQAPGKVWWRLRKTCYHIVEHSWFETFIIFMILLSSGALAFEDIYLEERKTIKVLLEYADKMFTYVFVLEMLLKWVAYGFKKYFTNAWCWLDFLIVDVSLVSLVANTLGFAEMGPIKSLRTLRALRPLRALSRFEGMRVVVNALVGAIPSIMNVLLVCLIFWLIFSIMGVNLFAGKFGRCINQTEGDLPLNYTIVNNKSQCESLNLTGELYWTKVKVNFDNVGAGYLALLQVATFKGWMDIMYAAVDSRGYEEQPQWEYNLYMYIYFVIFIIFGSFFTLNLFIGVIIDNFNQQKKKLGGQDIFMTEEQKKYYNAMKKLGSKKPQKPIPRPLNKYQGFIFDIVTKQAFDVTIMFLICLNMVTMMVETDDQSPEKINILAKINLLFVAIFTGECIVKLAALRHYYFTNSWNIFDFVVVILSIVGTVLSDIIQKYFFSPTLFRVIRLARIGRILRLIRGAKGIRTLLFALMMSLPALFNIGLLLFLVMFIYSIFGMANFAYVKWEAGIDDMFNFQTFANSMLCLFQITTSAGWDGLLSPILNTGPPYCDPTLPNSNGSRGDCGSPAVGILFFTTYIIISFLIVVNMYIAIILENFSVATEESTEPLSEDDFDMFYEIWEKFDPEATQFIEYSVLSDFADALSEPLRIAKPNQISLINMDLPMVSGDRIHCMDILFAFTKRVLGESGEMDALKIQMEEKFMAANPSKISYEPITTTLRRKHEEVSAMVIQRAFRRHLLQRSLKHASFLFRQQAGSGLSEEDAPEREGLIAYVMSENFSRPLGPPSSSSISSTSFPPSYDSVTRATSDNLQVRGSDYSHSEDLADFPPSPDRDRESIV
Compound,Nav1.1 current amplification rate (%) (human Nav1.1; [3]),Nav1.5 current amplification rate (%) (human Nav1.5; [4]),Nav1.1 current amplification rate (%) (human Nav1.1; [5]),Nav1.5 current amplification rate (%) (human Nav1.5; [6]),other results
CC1CC=C(c2ccc(=O)n(CC(=O)Nc3ccc4oc(CN5CCC5)nc4c3)n2)CC1 (racemic) [Example 333],,,,,Nav1.1 current amplification rate (%) (human Nav1.1; [1]): 25%; Nav1.5 current amplification rate (%) (human Nav1.5; [2]): 13%
CC1CC=C(c2ccc(=O)n(CC(=O)Nc3ccn4cc(C5CC5)nc4c3)n2)CC1 (racemic) [Example 334],,,,,Nav1.1 current amplification rate (%) (human Nav1.1; [1]): 255%; Nav1.5 current amplification rate (%) (human Nav1.5; [2]): 25%
CC1CC=C(c2ccc(=O)n(CC(=O)Nc3ccn4c(C5CC5)cnc4c3)n2)CC1 (racemic) [Example 335],,,,,Nav1.1 current amplification rate (%) (human Nav1.1; [1]): 187%; Nav1.5 current amplification rate (%) (human Nav1.5; [2]): 65%
CC1CC=C(c2ccc(=O)n(CC(=O)Nc3ccn4cncc4c3)n2)CC1 (racemic) [Example 338],241,49,,,
CC1CC=C(c2ccc(=O)n(CC(=O)Nc3ccc4ncnn4c3)n2)CC1 (racemic) [Example 339],127,15,,,
CC1CC=C(c2ccc(=O)n(CC(=O)Nc3ccn4nncc4c3)n2)CC1 (racemic) [Example 342],109,52,,,
CC1CC=C(c2ccc(=O)n(CC(=O)Nc3ccc4cnnn4c3)n2)CC1 (racemic) [Example 345],232,46,,,
CC1CC=C(c2ccc(=O)n(CC(=O)Nc3ccc4nccn4n3)n2)CC1 (racemic) [Example 346],96,27,,,
Cc1cc(NC(=O)Cn2nc(C3=CCC(C)CC3)ccc2=O)cn2ncnc12 (racemic) [Example 349],101,24,,,
Cc1cc(NC(=O)Cn2nc(C3=CCC(C)CC3)ccc2=O)cc2ncnn12 (racemic) [Example 352],155,34,,,
CC1CC=C(c2ccc(=O)n(CC(=O)Nc3ccc4nccnc4c3)n2)CC1 (racemic) [Example 354],123,27,,,
CC1CC=C(c2ccc(=O)n(CC(=O)Nc3ccc4ncncc4c3)n2)CC1 (racemic) [Example 355],130,28,,,
CC1CC=C(c2ccc(=O)n(CC(=O)Nc3ccc4cncnc4c3)n2)CC1 (racemic) [Example 356],378,34,,,
CC1CC=C(c2ccc(=O)n(CC(=O)Nc3ccc(C#N)nc3)n2)CC1 (racemic) [Example 360],200,100,,,
Cc1nccn1-c1ccc(NC(=O)Cn2nc(C3=CCC(C)CC3)ccc2=O)cc1 (racemic) [Example 361],101,112,,,
CC1CC=C(c2ccc(=O)n(CC(=O)Nc3ccnc(C#N)c3)n2)CC1 (racemic) [Example 362],133,24,,,
CC1CC=C(c2ccc(=O)n(CC(=O)Nc3ccnc(N4CCOCC4)c3F)n2)CC1 (racemic) [Example 383],84,51,,,
CC1CC=C(c2ccc(=O)n(CC(=O)N3CCN(c4ccccn4)CC3)n2)CC1 (racemic) [Example 394],,,98,1,
CC1CC=C(c2ccc(=O)n(CC(=O)N3CCN(c4cccnc4)CC3)n2)CC1 (racemic) [Example 395],,,343,15,
Cc1ccc(N2CCN(C(=O)Cn3nc(C4=CCC(C)CC4)ccc3=O)CC2)cn1 (racemic) [Example 396],,,136,8,

Compound,Nav1.1 current amplification rate (%) (human Nav1.1; [3]),Nav1.5 current amplification rate (%) (human Nav1.5; [4]),Nav1.1 current amplification rate (%) (human Nav1.1; [5]),Nav1.5 current amplification rate (%) (human Nav1.5; [6]),other results
CC1CC=C(c2ccc(=O)n(CC(=O)N3CC=C(c4cncc(F)c4)CC3)n2)CC1 (racemic) [Example 397],,,273,49,
CC1CC=C(c2ccc(=O)n(CC(=O)N3CC=C(c4cncnc4)CC3)n2)CC1 (racemic) [Example 398],,,175,29,
COc1cnc(C2=CCN(C(=O)Cn3nc(C4=CCC(C)CC4)ccc3=O)CC2)cn1 (racemic) [Example 399],,,102,11,
COc1ncc(C2=CCN(C(=O)Cn3nc(C4=CCC(C)CC4)ccc3=O)CC2)cn1 (racemic) [Example 400],,,238,24,
CC1CC=C(c2ccc(=O)n(CC(=O)N3CCN(c4cncc(C(F)(F)F)c4)CC3)n2)CC1 (racemic) [Example 401],,,286,5,
COc1cc(C2=CCC(C)CC2)nn(CC(=O)N2CCc3c(N4CCOCC4)cccc32)c1=O (racemic) [Example 473],,,487,128,
COc1cc(C2=CCC(C(F)(F)F)CC2)nn(CC(=O)N2CCc3c(N4CCOCC4)cccc32)c1=O (racemic) [Example 474],,,235,26,
COc1cc(=O)n(CC(=O)N2CCc3c(N4CCOCC4)cccc32)nc1C1=CCC(C(F)(F)F)CC1 (racemic) [Example 476],,,343,13,
O=C(Cn1nc(C2=CCC3(CC2)CC3(F)F)ccc1=O)N1CCc2c(N3CCOCC3)cccc21 (racemic) [Example 478],,,,,Nav1.1 current amplification rate (%) (human Nav1.1; [1]): 345%; Nav1.5 current amplification rate (%) (human Nav1.5; [2]): 23%
COc1cc(C2=CCC(C(F)(F)F)CC2)nn(CC(=O)N2CCN(c3cncc(F)c3)CC2)c1=O (racemic) [Example 482],,,219,8,
COc1cc(=O)n(CC(=O)N2CCN(c3cncc(F)c3)CC2)nc1C1=CCC(C(F)(F)F)CC1 (racemic) [Example 486],,,148,8,
O=C(Cn1nc(C2=CCC(C(F)(F)F)CC2)ccc1=O)N1CCN(c2cncc(F)c2)CC1 (racemic) [Example 487],,,190,109,
COc1cc(C2=CCC(C)CC2)nn(CC(=O)N2CCN(c3cncc(F)c3)CC2)c1=O (racemic) [Example 488],,,376,174,
"CC1CCC(c2ccc(=O)n(CC(=O)N3CCc4c(N5CCOCC5)cccc43)n2)CC1 (single isomer, unassigned) [Example 535]",,,277,10,
"CC1CCN(c2ccc(=O)n(CC(=O)Nc3ccc4ocnc4c3)n2)CC1 [Example 50, N-(1,3-benzooxazol-5-yl)-2-[3-(4-methylpiperidin-1-yl)-6-oxopyridazin-1(6H)-yl]acetamide]",,,,,"activation at 10 µM (human Nav1.1; 10 μmol/L compound, change of the area under the curve of Nav1.1 current (Test Result 1), read-out: Nav1.1 current amplification rate (%)): 155%; activation at 10 µM (human Nav1.5; 10 μmol/L compound, change of the area under the curve of Nav1.5 current (Test Result 1), read-out: Nav1.5 current amplification rate (%)): 4%"
CC1CCN(c2ccc(=O)n(CC(=O)Nc3ccc(C#N)nc3)n2)CC1 [Example 51],,,196,31,
CC1CCN(c2ccc(=O)n(CC(=O)Nc3ccnc(C(F)(F)F)c3)n2)CC1 [Example 52],,,248,19,
CC1CCN(c2ccc(=O)n(CC(=O)Nc3ccnc(C#N)c3)n2)CC1 [Example 53],,,161,11,
CC1CCN(c2ccc(=O)n(CC(=O)Nc3cccc(C#N)c3)n2)CC1 [Example 55],,,111,27,
